Drawing on PubChem BioAssay (NCI), this text covers TGI and GI50 for 13 compounds.

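Exposure lasted 48 hours, with cells grown in 96-well plates and compounds tested at five concentrations. GI50 is the concentration that inhibits growth by half. At the TGI there is no net growth.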 A value given as a limit tells only on which side of the number the result lay.

Among the test systems are HOP-92 NSCLC; HS 578T breast; MALME-3M melanoma; MDA-N; RXF 393 renal; SF-268 CNS; T-47D breast; UO-31 renal; CAKI-1 renal; NCI-H226 lung.
What all share (assay): NCI-60 cell line screen, 48 h

Regarding `Cc1ccc(S(=O)(=O)NC(=O)NCCC(=O)O)cc1`, the TGI in the assay with HOP-92 NSCLC, with HS 578T breast, with MALME-3M melanoma, in the assay with MDA-N, in the assay with RXF 393 renal and in the assay with SF-268 CNS was > 100 µM each time. Further, the TGI in the assay on T-47D breast and with UO-31 renal was > 100 µM each time.

Take `C=C1C(=O)O[C@H]2C/C(C)=C/CC/C(C)=C/CC[C@@](C)(O)[C@@H](I)C[C@@H]12`: the TGI was 22.4 µM in the assay with CAKI-1 renal; 9.82 µM in the assay with HOP-92 NSCLC; 21.5 µM with HS 578T breast; 22.3 µM in the assay with MALME-3M melanoma; 13.3 µM in the assay with MDA-N; 12.2 µM in the assay on NCI-H226 lung. Also, the TGI in the assay on RXF 393 renal came out at 13.2 µM; with SF-268 CNS, 31.9 µM; with T-47D breast it was 32.1 µM; in the assay with UO-31 renal, 24.5 µM.

Take `Cc1cc(N=Cc2c(CO)cnc(C)c2O)c(N=Cc2c(CO)cnc(C)c2O)cc1C.[Zn]`: the TGI in the assay with CAKI-1 renal, in the assay on HOP-92 NSCLC, in the assay with HS 578T breast, in the assay on MDA-N, in the assay with NCI-H226 lung and with RXF 393 renal was > 100 µM throughout. The TGI with SF-268 CNS, in the assay with T-47D breast and with UO-31 renal was > 100 µM each time.

As for `S=c1nc2[nH]c3ccc(Br)cc3c2n[nH]1`, the TGI with CAKI-1 renal was > 100 µM; in the assay with HOP-92 NSCLC it was > 100 µM; in the assay with HS 578T breast, > 100 µM; in the assay on MALME-3M melanoma it was > 100 µM; in the assay with MDA-N it was 30.7 µM; in the assay on NCI-H226 lung, > 100 µM. Also, the TGI with RXF 393 renal, in the assay on SF-268 CNS, in the assay with T-47D breast and in the assay on UO-31 renal was > 100 µM each time.

For `Cc1cccc2nc3cccc(C(=O)NCCC[N+](C)(CCCNC(=O)c4cccc5nc6cccc(C)c6nc45)Cc4c([N+](=O)[O-])ncn4C)c3nc12`, the GI50 with CAKI-1 renal was 107 µM; with HOP-92 NSCLC, > 1100 µM; in the assay with MALME-3M melanoma, 26.2 µM; in the assay on MDA-N, 18.1 µM; with NCI-H226 lung it was 0.11 µM; in the assay with RXF 393 renal, 339 µM. Also, the GI50 with SF-268 CNS was 19.2 µM; with UO-31 renal, 48.7 µM. Also, the TGI was > 1100 µM in the assay on CAKI-1 renal; > 1100 µM in the assay on HOP-92 NSCLC; > 1100 µM in the assay with HS 578T breast; 432 µM with MALME-3M melanoma; > 1100 µM with MDA-N; 267 µM in the assay with NCI-H226 lung. Also, the TGI with RXF 393 renal, with SF-268 CNS, in the assay on T-47D breast and in the assay with UO-31 renal was > 1100 µM in each case.

As for `Cc1cc(=O)n2nc(CSc3nnc(N)s3)sc2n1`, the TGI in the assay with CAKI-1 renal, in the assay with HOP-92 NSCLC, in the assay on HS 578T breast, in the assay on MALME-3M melanoma, in the assay with MDA-N and with NCI-H226 lung was > 100 µM in each case. The TGI in the assay on RXF 393 renal, with SF-268 CNS, in the assay with T-47D breast and in the assay with UO-31 renal was > 100 µM in each case.

For the compound `COC(=O)c1ccc(CCc2cc(O)ccc2O)cc1`, the TGI with CAKI-1 renal was 12.9 µM; with HOP-92 NSCLC, 26.4 µM; in the assay on HS 578T breast it was > 39.5 µM; with MALME-3M melanoma, 22.5 µM; in the assay with MDA-N, 20.5 µM; with NCI-H226 lung, 38.6 µM. Moreover, the TGI in the assay with RXF 393 renal was 20.9 µM; in the assay with SF-268 CNS it was > 36.6 µM; in the assay on T-47D breast, 7.91 µM; in the assay on UO-31 renal it was 7.04 µM.

With `CC(=Nc1c2ccccc2nc2ccccc12)N(C)C`, the TGI is > 100 µM with CAKI-1 renal; 37.2 µM in the assay on HOP-92 NSCLC; 69.8 µM in the assay on HS 578T breast; > 100 µM in the assay on MALME-3M melanoma; 90.3 µM in the assay on MDA-N; 45.7 µM in the assay with NCI-H226 lung. Moreover, the TGI in the assay with RXF 393 renal was 78.1 µM; in the assay on SF-268 CNS it was > 100 µM; with T-47D breast, 54.5 µM; in the assay on UO-31 renal it was 54.6 µM.

In the case of `S=C1C(=Nc2ccccc2)N(c2ccccc2)/C(=N\c2ccccn2)N1c1ccccc1`, the TGI was found to be 29 µM with CAKI-1 renal; 25.7 µM in the assay with HOP-92 NSCLC; 39.5 µM in the assay with HS 578T breast; 30.6 µM in the assay with MALME-3M melanoma; 18.5 µM in the assay on MDA-N; 36.8 µM with NCI-H226 lung. For the same compound, the TGI in the assay with RXF 393 renal worked out at 22.4 µM; with SF-268 CNS it was 31.4 µM; with T-47D breast it was 41.5 µM; with UO-31 renal it was 26.1 µM.

Consider `NC(c1ccccc1)(C(F)(F)F)P1(=O)OC(=O)c2ccccc2O1` (stereo unspecified), for which the TGI in the assay with CAKI-1 renal is > 100 µM; in the assay on HOP-92 NSCLC, 85 µM; in the assay on MDA-N it was > 100 µM; in the assay with NCI-H226 lung it was > 100 µM; with RXF 393 renal, > 100 µM; in the assay on SF-268 CNS it was > 100 µM. The TGI in the assay on T-47D breast and with UO-31 renal was > 100 µM throughout.

`C=CCN(c1cc(OCc2ccccc2)c(NC(C)=O)cc1[N+](=O)[O-])S(C)(=O)=O`: the TGI in the assay with CAKI-1 renal was > 100 µM; in the assay on HOP-92 NSCLC, 41.2 µM; with HS 578T breast it was 56.7 µM; in the assay on MALME-3M melanoma it was 73.2 µM; with MDA-N, > 100 µM; in the assay on NCI-H226 lung it was 25.2 µM. The TGI was 40.3 µM with RXF 393 renal, 51.3 µM with SF-268 CNS, > 100 µM in the assay on T-47D breast and > 100 µM with UO-31 renal.

With `COC(=O)c1ccccc1C#CCCCOS(C)(=O)=O`, the TGI with CAKI-1 renal, in the assay with HS 578T breast, with MALME-3M melanoma, in the assay on MDA-N, in the assay on NCI-H226 lung and with RXF 393 renal was > 10 µM throughout. The TGI in the assay on SF-268 CNS, in the assay with T-47D breast and with UO-31 renal was > 10 µM each time.

For `C1#Cc2ccccc2OCCOc2ccccc2C#Cc2ccccc2OCCOc2ccccc21`, the TGI in the assay with CAKI-1 renal is 40.7 µM; in the assay with HS 578T breast it was 64.3 µM; in the assay on MALME-3M melanoma, 73 µM; in the assay on MDA-N, > 100 µM; with NCI-H226 lung it was 38.3 µM; in the assay on RXF 393 renal, 35.4 µM. The TGI in the assay on SF-268 CNS was 46.3 µM; in the assay on T-47D breast, > 100 µM; in the assay on UO-31 renal, > 100 µM.
